Experimental data as given in patent US10307471B2, “Immunity inducer for saccharide antigens” (NATIONAL INSTITUTE OF ADVANCED INDUSTRIAL SCIENCE AND …, priority 2013, dated 2019).
“Also recorded” adds a separate entry of the source.

What was measured:
[1] = tested on: glycoprotein (Fetuin) containing a 6′-Sialyl-LacNAc (CDw75) carbohydrate structure; settings: Non Patent Literature 8, cited from earlier work
immunogen = assay: Serum antibody titer to the immunogen after immunity induction (ELISA); format: in vivo, mouse; settings: for antibody titer in the IgG subclass: antigen not specified, data not shown; for serum antibody titer to the immunogen, IgM subclass: mouse serum 3 and 7 days after final immunization vs unimmunized, liposome method with Lipid-A, ELISA; for serum antibody titer to the immunogen, IgG subclass: mouse serum after final immunization (7 days where stated) vs unimmunized, only primary additional immunization
Description: (§1) Each immunogen was subcutaneously immunized on the first day, and additional immunization was abdominally conducted after two weeks. The blood was collected after 3 days and 7 days from the additional immunization to prepare serums. Antibody titers in the obtained serums were evaluated by ELISA. An immunogen and a glycoprotein containing an objective carbohydrate were used as solid-phased antigens by ELISA, and each was evaluated as an antibody titer to the immunogen and an antibody titer to the objective carbohydrate (FIGS. 1 to 4).
(§2) In order to evaluate subclasses (IgM and IgG) of produced immunoglobulin, evaluation was conducted using antibodies specific to IgM and IgG as secondary antibodies. An antibody titer was evaluated as an activity of peroxidase that is a labeling enzyme of a secondary antibody. TMB was used as a chromogenic substrate of peroxidase, and an intensity of an absorbance at 450 nm after adding 2 N-sulfuric acid after the reaction was evaluated. FIGS. 1 to 3 illustrate antibody titers of IgM subclass, and FIG. 4 illustrates antibody titers of IgG subclass.
Next, each of racemic forms of various immunity inducers (a1, b1 and c1) synthesized in Examples (1-1), (1-2) and (1-3) was dissolved into s lipid containing cholesterol and phospholipid with an adjuvant (Lipid-A), and immunized a mouse being a host generally producing a monoclonal antibody (C3H/HeN strain) in a liposome method (Eur. J. Immunol., 16, 951-956, 1986) to evaluate the immunity inducing ability.
(§3) Each of the immunity inducers was subcutaneously immunized and additionally abdominally immunized after 2 weeks. After the additional immunization, the blood was collected after 3 days and 7 days, and the serum was examined. The antibody titer in the obtained serum was evaluated by ELISA method. In ELISA method, using two types of antigens of an immunogen and a glycoprotein (Fetuin) containing 6′-Sialyl-LacNAc, 3′-Sialyl-LacNAc and LacNAc structures, they were evaluated as an antibody titer to the immunogen and an antibody titer to the objective carbohydrate, respectively.
(§4) In addition, in order to evaluate subclasses (IgM and IgG) of immunoglobulin, an antibody specific to IgM and IgG was used as a secondary antibody to evaluate the subclasses. The antibody titer was evaluated as an activity of peroxidase that is a labeling enzyme of a secondary antibody. TMB was used for a chromogenic substrate of peroxidase, and an intensity of an absorbance at 450 nm after adding 2 N-sulfuric acid after the reaction was evaluated.
Each of the immunity inducers was subcutaneously immunized on the first day, and the carrier compound was additionally abdominally immunized after 2 weeks. After the additional immunization, the blood was collected after 3 days and 7 days to prepare serums. Antibody titers of the obtained serums were evaluated by ELISA method. In ELISA method, using two types of antigens of an immunogen and a glycoprotein (Fetuin) containing a 6′-Sialyl-LacNAc structure, they were evaluated as an antibody titer to the immunogen and an antibody titer to the objective sugar chain, respectively. In addition, in order to evaluate subclasses (IgM and IgG) of produced immunoglobulin, an antibody specific to IgM and IgG was used as the secondary antibody to evaluate the subclasses. The antibody titer was evaluated as an activity of peroxidase that is a labeling enzyme of the secondary antibody. TMB was used for a chromogenic substrate of peroxidase, and an intensity of an absorbance at 450 nm after adding 2 N-sulfuric acid after the reaction was evaluated. […] Among the evaluated compounds, the antibody titer of a2 was the lowest, and the activity of a3-1 was the highest in the examined compounds.

glycoprotein (Fetuin) = assay: Serum antibody titer to glycoprotein (Fetuin) after immunity induction (ELISA); format: in vivo; settings: mouse serum 3 and 7 days after final immunization vs unimmunized; Fetuin-a used as antigen for c1
Description: as §1
as §2, with “subclass. […]” for “subclass.”
as §3, with “After the additional immunization, the blood was collected after 3 days and 7 days, and the serum was examined.” left out
as §4, with “evaluated. […]” for “evaluated.”

glycoprotein (HL60) = assay: Serum antibody titer to HL60 glycoprotein after immunity induction (ELISA); format: in vivo, mouse
Description: FIG. 9 illustrates serum antibody titers after immunity inductions with sLe^X-C12L and Le^X-C12L: after immunizing a mouse using each of the sLe^X-C12L and Le^X-C12L compounds as an immunity inducer, an antibody titer of each subclass (IgM and IgG) of immunoglobulin in the serum was evaluated by ELISA. A and B show serum antibody titers of a mouse immunized with sLe^X-C12L, C and D show serum antibody titers of a mouse immunized with Le^X-C12. A and C: Evaluations on an immunogen used as an antigen by ELISA. B: Evaluation on a cell extract (HL60) containing a glycoprotein including an epitope of a target carbohydrate used as an antigen by ELISA. […]
as §1, with “The blood was collected after 3 days and 7 days from the additional immunization to prepare serums.” left out
In order to evaluate subclasses (IgM and IgG) of produced immunoglobulin, evaluation was conducted using antibodies specific to IgM and IgG as secondary antibodies. An antibody titer was evaluated as an activity of peroxidase that is a labeling enzyme of a secondary antibody. […]

| Compound | antibody titer in the IgG subclass (immunogen) | serum antibody titer to the immunogen, IgM subclass (immunogen) | serum antibody titer to glycoprotein (Fetuin), IgM subclass (glycoprotein (Fetuin)) | serum antibody titer to the immunogen, IgG subclass (immunogen) | also measured |
| --- | --- | --- | --- | --- | --- |
| phosphatidylethanolamine | – | – | – | – | appearance ratio of positive clones, conventional technique ([1]; 581 wells): 1.3%; positive clones, conventional technique ([1]; out of selected 581 wells): 8 wells |
| Siaα2,3-Galβ1,4GlcNAcβ1-CerA [b1] | not observed | significantly increased; also recorded: significant increases of antibody titers | significantly increased; also recorded: significant increases of antibody titers | – | – |
| CCCCCCCCCCCCC/C=C/[C@@H](O)C(CO[C@@H]1OC(CO)[C@@H](O[C@@H]2OC(CO)[C@H](O[C@H]3OC(CO)[C@H](O)C(O[C@@H]4OC(CO)[C@H](O)C(O)C4NC(C)=O)C3O)C(O)C2O)C(O)C1O)NC(=O)CCCCCCCCCCCCCCCCCCCCCCC (stereo partly drawn) [Globoside, GalNAcβ1,3Galα1,4Galβ1,4Glcβ1-Cer, reference compound] | – | significantly increased | – | not confirmed | serum antibody titer to the immunogen, IgM subclass (immunogen; listed as globoside): significant increase of the antibody titer |
| CCCCCCCCCCCCCCCCCCCCCCCC(=O)N[C@@H](CCCCCCCCCC)CO[C@@H]1O[C@H](CO)[C@@H](O[C@@H]2O[C@H](CO)[C@H](O)[C@H](O[C@]3(C(=O)O)C[C@H](O)[C@@H](NC(C)=O)[C@H]([C@H](O)[C@H](O)CO)O3)[C@H]2O)[C@H](O[C@@H]2O[C@@H](C)[C@@H](O)[C@@H](O)[C@@H]2O)[C@H]1NC(C)=O [sLe^X-C12L, Siaα2,3Galβ1,4(Fucα1,3)GlcNAcβ1-C12L] | – | significant increases of antibody titers | – | tendency of an increase of an antibody titer | serum antibody titer to glycoprotein (HL60), IgG subclass (glycoprotein (HL60); only primary additional immunization): significant increase of an antibody titer; serum antibody titer to glycoprotein (HL60), IgM subclass (glycoprotein (HL60); serums after 3 days and 7 days from the immunization): significant increases of antibody titers |
| CCCCCCCCCCC(CO[C@@H]1OC(CO)[C@@H](O[C@@H]2OC(CO[C@]3(C(=O)O)CC(O)[C@@H](NC(C)=O)C([C@H](O)[C@H](O)CO)O3)[C@H](O)C(O)C2O)C(O)C1NC(C)=O)NC(C)=O (stereo partly drawn) [a2, reference compound] | – | significant increases of antibody titers | significant increases of antibody titers | – | rank of antibody titer / activity among the evaluated compounds (immunogen; a1, a2, a3-1, a3-2, a3-3 compared, IgM subclass): lowest |
| CCCCCCCCCCCCCCCCCC(=O)NC(CCCCCCCCCC)CO[C@@H]1OC(CO)[C@@H](O[C@@H]2OC(CO[C@]3(C(=O)O)CC(O)[C@@H](NC(C)=O)C([C@H](O)[C@H](O)CO)O3)[C@H](O)C(O)C2O)C(O)C1NC(C)=O (stereo partly drawn) [a1, Siaα2,6Galβ1,4GlcNAcβ1-CerA] | not observed | significantly increased; also recorded: significant increases of antibody titers | significantly increased; also recorded: significant increases of antibody titers | – | – |
